Data as given in publication PMC12212627, “Machine Learning-Based Virtual Screening of Antibacterial Agents against Methicillin-Susceptible and Resistant Staphylococcus aureus” (Journal of Chemical Information and Modeling, 2024).

Columns and labels:
[1] = tested on: S. aureus (ATCC n° 29213), MSSA; assay: Broth microdilution (CLSI): screening at 100 μM and MIC, MSSA; assay type: cell-based, Staphylococcus aureus; conditions: for Percentage of growth inhibition MSSA (ATCC 29123): at 100 uM, Table S4
Protocol: (§1) E. coli (ATCC n° […]) – a TEM-1 β-lactamase producing strain, S. aureus (ATCC n° 29213) – herein referred to as MSSA, MRSA (ATCC n° 43300), and two clinical strains of MRSA (n° 5749 and 6154) were used in the biological assays. The antibacterial activity and minimal inhibitory concentration (MIC) of the screened compounds were evaluated with the broth microdilution method in 96-well microplates, according to the Clinical and Laboratory Standards Institute (CLSI) protocol. Initially, compounds were evaluated in a screening assay to identify promising hits. The compounds were dissolved in dimethyl sulfoxide (DMSO) and then diluted in Mueller Hinton broth (MHB; Oxoid, Thermo Scientific, U.K.) to a concentration of 200 μM. After the addition of 100 μL to each well, the same volume of bacterial suspension containing 10^5 CFU/mL was added to each of the previous solutions, resulting in a final compound concentration of 100 μM. A viability control (bacterial suspension only), inhibition controls (MHB containing five times the MIC of penicillin G for MSSA, vancomycin for MRSA strains, and streptomycin for E. coli), a sterility control (medium only), and a vehicle control (DMSO 2% v/v) were included in each assay microplate. After 24 h of incubation at 37 °C, the microplates were visually inspected for inhibition of bacterial growth, and the absorbance at 600 nm of each well was read using a microplate reader spectrophotometer (VersaMax, Molecular Devices, CA). The percentage of growth inhibition was calculated as the percentage of growth reduction compared with the vehicle control. Wells showing no visual bacterial growth (no turbidity) were considered hits. The MIC of the promising compounds in the initial screening were tested as previously described, with a serial dilution of each compound (100–1.56 μM). All conditions were tested in triplicate from at least three independent assays.

[2] = tested on: MRSA (ATCC n° 43300); assay: Broth microdilution (CLSI): screening at 100 μM and MIC, MRSA reference strain; assay type: cell-based, Staphylococcus aureus; conditions: for Percentage of growth inhibition MRSA (ATCC 43300): at 100 uM, Table S4
Protocol: as §1

[3] = tested on: clinical strain of MRSA n° 5749; assay: Broth microdilution (CLSI): screening at 100 μM and MIC, MRSA clinical strain 5749; assay type: cell-based, Staphylococcus aureus; conditions: for Percentage of growth inhibition MRSA (5749): at 100 uM, Table S4
Protocol: as §1

[4] = tested on: clinical strain of MRSA n° 6154; assay: Broth microdilution (CLSI): screening at 100 μM and MIC, MRSA clinical strain 6154; assay type: cell-based, Staphylococcus aureus; conditions: for Percentage of growth inhibition MRSA (6154): at 100 uM, Table S4
Protocol: as §1

[5] = tested on: E. coli (ATCC 35218), TEM-1 β-lactamase producing strain; assay: Broth microdilution (CLSI): screening at 100 μM and MIC, E. coli; assay type: cell-based; conditions: for Percentage of growth inhibition E. coli (ATCC 35218): at 100 uM, Table S4
Protocol: as §1

[6] = Cytotoxicity, colorimetric MTT assay; assay type: cell-based; conditions: African green monkey, Vero (ATCC CCL-81) cells, 72 h incubation
Protocol: As for the cytotoxic concentration of 50% (CC50) determination, the Vero (ATCC CCL-81) cell line was cultured in Eagle’s Minimum Essential Medium (MEM) (Cultilab, Brazil). The medium was supplemented with 5% fetal bovine serum (FBS) (Cultilab, Brazil), in addition to 100 IU/mL penicillin (Cellofarm, Brazil), 100 μg/mL streptomycin (Merck, Germany), and 0.25 μg/mL amphotericin B (Cultilab, Brazil). Cells were seeded in 96-well microplates (4.0 × 10^4 cells per well) and incubated at 37 °C and 5% CO2 atmosphere. After 24 h of incubation, 200 μL of fresh medium containing a serial dilution of the compounds (100–1.56 μM) was added to the plates. Serial dilutions of DMSO were used as vehicle controls. After 72 h of incubation under the same conditions, 100 μL of 3-(4,5-dimethylthiazol-2-yl)–2,5-diphenyltetrazolium bromide (MTT) in MEM (0.5 mg/mL) was added to each well. After 3 h of incubation with MTT (ThermoFischer Scientific), the medium was removed, and 100 μL of DMSO was added to each well to solubilize the formazan crystals. After a brief incubation under shaking for 20 min, the absorbance at 570 nm of each well was read using a spectrophotometer (VersaMax, Molecular Devices). The percentages of inhibition of cell viability were calculated by using the vehicle control. The cytotoxic concentration of 50% (CC50) is defined as the lowest concentration of a given compound that can reduce the viability of cultured cells by 50%. Posteriorly, the selectivity index (SI), that is, the ratio between the CC50 and MIC values of each active compound, was calculated. All conditions were tested in triplicate and at least two independent assays. The overall procedures applied in this work are illustrated in Figure .

[7] = tested on: MSSA and MRSA strains; assay: Broth microdilution, results summed up over MSSA and MRSA strains; assay type: cell-based, Staphylococcus aureus; conditions: tested compounds of Supporting Table S4, 100 μM
Protocol: as §1

[8] = broth microdilution, 24 h, 37 °C

| SMILES | Percentage of growth inhibition MSSA (ATCC 29123) [1] [%] | Percentage of growth inhibition MRSA (ATCC 43300) [2] [%] | Percentage of growth inhibition MRSA (5749) [3] [%] | Percentage of growth inhibition MRSA (6154) [4] [%] | Percentage of growth inhibition E. coli (ATCC 35218) [5] [%] | further results |
| --- | --- | --- | --- | --- | --- | --- |
| Cc1ccc(OCC(N)COc2ccc(C)cc2)cc1 [Compound 4, 1,3-bis(4-methylphenoxy)propano-2-aminium chloride] |  |  |  |  |  | MIC ([1]; Staphylococcus aureus, ATCC 29123 / MSSA, broth microdilution, 24 h, 37 °C): 50 µM; % of growth inhibition, MSSA (ATCC 29123) ([1]; at the concentration (MIC)): 97.80%; MIC ([2]; Staphylococcus aureus, ATCC 43300 / MRSA, broth microdilution, 24 h, 37 °C): 100 µM; % of growth inhibition, MRSA (ATCC 43300) ([2]; at the concentration given (MIC or 100 μM where MIC >100)): 90.38%; MIC, MRSA (5749) [3, 8]: −; MIC, MRSA (6154) [4, 8]: −; inhibition at 100 µM ([5]; Escherichia coli, ATCC35218, at 100 μM, read-out: inhibition in the initial screening, E. coli): 85.5%; MIC ([5]; Escherichia coli, ATCC35218, broth microdilution, 24 h, 37 °C): 100 µM; % of growth inhibition, E. coli (ATCC 35218) ([5]; at the concentration (MIC)): 87.0%; CC50 at 72 h [6]: 19 ± 6.1 µM |
| O=C1C=C(OCc2cn(-c3ccccc3)nn2)C(=O)c2ccccc21 [S12] | 0 | 0 | 0 | 0 | 0 | antibacterial activity (in words) [7]: no antibacterial activity |
| CC1(C)OCC(CO)N1C(=O)OCc1ccccc1 (stereo not shown) [S13] | 0 | 0 | 0 | 0 | 0 |  |
| O=C(C=Cc1ccccc1)NC(CO)COc1ccc([N+](=O)[O-])cc1 (stereo not shown) [S14] | 0 | 0 | 0 | 0 | 0 |  |
| O=C(CCc1ccccc1)ON1C(=O)CCC1=O [S16] | 0 | 0 | 0 | 0 | 0 |  |
| OC(COc1cccc2ccccc12)COc1cccc2ccccc12 [S17] | 0 | 0 | 0 | 0 | 0 |  |
| N#Cc1ccccc1OCC(O)COc1ccccc1C#N [S18] | 0 | 0 | 0 | 0 | 0 |  |
| N#Cc1cccc(OCC(O)COc2cccc(C#N)c2)c1 [S19] | 0 | 0 | 0 | 0 | 0 |  |
| O=C1C(O)=C(Cc2cn(C3OC(CO)C(O)C(O)C3O)nn2)C(=O)c2ccccc21 (stereo not shown) [S25] | 0 | 0 | 0 | 0 | 0 |  |
| O=C1C(O)=C(Cc2cn(C3OC(CO)C(O)C(O)C3O)nn2)C(=O)c2ccccc21 (stereo not shown) [S26] | 0 | 0 | 0 | 0 | 0 |  |
| CC(=O)NC1C(O)C(O)C(CO)OC1n1cc(CC2=C(O)C(=O)c3ccccc3C2=O)nn1 (stereo not shown) [S27] | 0 | 0 | 0 | 0 | 0 |  |
